According to publication PMC6327263, “Evaluation of Novel 3-Hydroxyflavone Analogues as HDAC Inhibitors against Colorectal Cancer” (Advances in Pharmacological Sciences, 2018):
Several values for one entry are separate records, joined by “and”; a condition that tells them apart may be missing. Equal entries are not always repeated. Marks after values point to notes of the source that are not given here.

What was measured:
HCT116 cells [1] = experiment: MTT cytotoxicity assay, HCT116; format: cell-based, human; details: Homo sapiens, HCT-116, 48 h, mean ± SEM of three experiments
Protocol: (§1) Human colorectal carcinoma cell line (HCT116) and African green monkey kidney epithelial cells (VERO) were obtained from National Centre for Cell Science, Pune, MH, India. For their maintenance, the cells were grown in Dulbecco's Modified Eagle's Medium (DMEM) which was supplemented with 10% fetal bovine serum (FBS) and 1 × penicillin/streptomycin at 37°C in CO2 incubator (NU-5501E/G, NuAire Inc., Plymouth, MN, USA) in a humidified atmosphere of 5% CO2 and 95% air.
(§2) Cytotoxicity for the synthesized analogues was determined using MTT assay. In brief, HCT116 and VERO cells were harvested from the tissue culture flask and seeded in sterile 96 well plates at a density of 5000 cells per well. After overnight adherence, different concentrations of test compounds were added and incubated for 48 h. Next, 50 µl of the MTT reagent (HiMedia Laboratories, Mumbai, India) (2 mg/ml in the sterile phosphate buffer saline (PBS)) was added into each well and incubated for 3 h. The formazan crystals formed were solubilized using 100% dimethyl sulfoxide (DMSO), and the optical density was measured at 540 nm using the microplate reader (ELx800, BioTek Instruments Inc., Winooski, VT, USA).

VERO cells = experiment: MTT cytotoxicity assay, Vero; format: cell-based, African green monkey; details: Chlorocebus sabaeus, 48 h, mean ± SEM of three experiments
Protocol: as §1, §2

[2] = tested on: HDAC enzyme in HCT116 cells; experiment: Whole cell HDAC inhibition assay; format: cell-based; details: Homo sapiens, HCT-116, HCT116, 18 h treatment, mean ± SEM of three experiments
Protocol: Confluent HCT116 cells were harvested and seeded in 96 well sterile black well plates at a density of 2000 cells per well and incubated overnight. Furthermore, the cells were treated with different concentrations of test compounds for a period of 18 h followed by the addition of […] BOC-Ac-Lys-AMC substrate and incubated for 1 h. […] The reaction was then allowed to proceed for 15 min at 37°C. Finally, the fluorescence intensity was measured at 360 nm excitation and 460 nm emission using a fluorescence microplate reader (FLx800, BioTek Instruments Inc., Winooski, VT, USA).

HDAC8 = experiment: Western blotting, HDAC8 expression; format: cell-based, human; details: HCT116 cells, 24 h, compared to normal control
Protocol: (§3) After various treatments for 24 h, cells were lysed, and protein quantification of the lysates was estimated using the BCA™ kit (Thermo Fisher Scientific Inc., Waltham, MA, USA). Proteins samples (30 µg) were resolved on a 10% SDS-PAGE and transferred onto a PVDF membrane and blocked with 5% nonfat milk in TBST (tris-buffered saline with Tween-20) buffer for 1 h followed by washing in TBST buffer. The membrane was then probed with primary antibodies (GAPDH, HDAC8, p21^Waf1/Cip1, and acetyl-histone H3[Ac-Lys^9]) and incubated overnight at 4°C. The membrane was washed with TBST buffer and incubated with horseradish peroxidase-conjugated secondary antibody for 1 h at room temperature. Signal was captured using SuperSignal™ West Pico Plus chemiluminescent substrate (Thermo Fischer Scientific Inc., Waltham, MA, USA) on gel documentation system (G : BOX Chemi XRQ, Syngene).

acetyl histone H3K9 = experiment: Western blotting, acetyl histone H3K9 expression; format: cell-based, human; details: HCT116 cells, 24 h, compared to normal control
Protocol: as §3, with “Syngene). The protein band densities were estimated using the software ImageJ (version 1.46r, NIH, Bethesda, MD, USA).” for “Syngene).”

p21^Waf1/Cip1 = experiment: Western blotting, p21Waf1/Cip1 expression; format: cell-based, human; details: HCT116 cells, 24 h, compared to normal control
Protocol: as §3

HCT116 cells [3] = experiment: Annexin V staining; format: cell-based, human; details: SAHA 5 µM, quercetin 100 µM, QMJ-2 100 µM, QMJ-5 50 µM, normal control 21.30%
Protocol: Mechanism of cell death induced by synthesized analogues was determined using annexin V staining. In brief, as per annexin V flow cytometry kit protocol (#MCH100105), 1 × 10^6 cells were seeded in a cell culture dish and after overnight adherence, were incubated with test compounds. Cells were then detached by trypsinization, centrifuged, and washed with PBS. Cell suspension (100 µl) was mixed with Muse annexin V reagent (100 µl) and incubated for 20 min at room temperature. The stained cells were quantitatively analyzed for live, early, and late apoptosis using Muse cell analyzer (#0500-3115 Merck Millipore).

[4] = tested on: caspase 3/7 in HCT116 cells; experiment: Caspase 3/7 activation assay; format: cell-based, human; details: SAHA 5 µM, quercetin 100 µM, QMJ-2 100 µM, QMJ-5 50 µM, normal control 24.60%
Protocol: The downstream signaling pathway of apoptosis was determined using the caspase 3/7 activation assay. In brief, as per the caspase 3/7 activation kit protocol (#MCH100108), 1 × 10^6 cells were seeded in the cell culture dish and after overnight adherence, were incubated with the test compounds. The cells were detached by trypsinization, centrifuged, and washed with PBS. Cell suspension (50 µl) was mixed with the caspase 3/7 antibody reagent (5 µl) and incubated at 37°C temperature for 30 min. 7-AAD (7-amino-actinomycin D) working solution (150 µl) was added, and stained cells were then analyzed in Muse Cell Analyzer (#0500-3115 Merck Millipore).

HCT116 cells [5] = experiment: Cell cycle analysis; format: cell-based, human; details: HCT116, 48 h; SAHA 5 µM, quercetin 100 µM, QMJ-2 100 µM, QMJ-5 50 µM; normal control 29.2%
Protocol: Cell cycle analysis was performed to estimate the effect of synthesized analogues on the different phases of the cell cycle. In brief, 1 × 10^6 cells were seeded in the cell culture dish and allowed to attach overnight followed by incubation with test compounds. After 48 h, the cells were detached by trypsinization, centrifuged, and washed with PBS. The cell pellets were fixed in 70% v/v ice cold ethanol and stored at −20°C for 24 h. After fixing, the pellets were dislodged in PBS and stained with propidium iodide solution and analyzed using Accuri C6 flow cytometer (BD Biosciences, San Jose, CA, USA).

DMH-induced colon cancer = format: in vivo, Wistar rats; details: 5-FU 10 mg/kg i.p.
Protocol: The two test compounds (QMJ-2 and QMJ-5) and quercetin were suspended in 0.25% w/v sodium carboxymethyl cellulose (CMC) and were administered orally (p.o.). 5-Fluorouracil (5-FU) which was used as a standard was procured in the form of injection and was administered intraperitonially (i.p.).
Colon cancer in experimental animals was induced using the highly specific carcinogen DMH, with few modifications from the previously described procedure. DMH was administered at a dose of 30 mg/kg i.p. once a week for 20 weeks. The incidence of aberrant crypt foci (ACF) and adenocarcinoma were confirmed by sacrificing few animals after 20 weeks of induction with DMH. Furthermore, the animals were randomized into five experimental groups, and various treatments were administered for a period of 21 days followed by the assessment of different parameters in the experimental animals.
(1) Experimental Groups • Group 1: animals received 0.25% CMC in water p.o. • Group 2: animals received 0.25% CMC in water p.o. (DMH control) • Group 3: animals received 5-FU at 10 mg/kg i.p. • Group 4: animals received quercetin at 100 mg/kg p.o. • Group 5: animals received QMJ-2 at 100 mg/kg p.o. • Group 6: animals received QMJ-5 at 100 mg/kg p.o.
(2) ACF Formation and Adenocarcinoma Incidence. The entire colon was excised from the experimental animals and was used to study the incidence of adenocarcinoma. The count and size were noted from each animal. For ACF formation, the distal part of the colon was excised, and the tissue was then cut open and fixed with 10% buffered formalin for 12 h. Following this, the tissue was stained with 0.1% methylene blue in PBS for 5 min. The tissues were then observed under microscope for ACF formation and were calculated as the number of counts/5 cm^2 in colon tissue.
(3) Colon Weight/Length Ratio and Organ Index. Length of the excised colon was measured in centimeters, and weight was measured in g. Colon weight/length ratio was then calculated. For the determination of organ index, major organs including spleen, liver, and kidney of the experimental animals were weighed in g and the respective index was calculated. […]

IC50 [2] | SMILES | IC50 (HCT116 cells [1]) | IC50 (VERO cells) | other results
1011 ± 3.4 µM | Cc1ccc(-c2oc3ccc(C)cc3c(=O)c2O)cc1 [QMJ-4, 3-Hydroxy-6-methyl-2-(4-methylphenyl)-4H-1-benzopyran-4-one] | > 400 µM | > 400 µM | 
984.2 ± 2.5 µM | COc1ccc2c(=O)c(O)c(-c3ccc(C)cc3)oc2c1 [QMJ-6, 3-Hydroxy-7-methoxy-2-(4-methylphenyl)-4H-1-benzopyran-4-one] | 94 ± 2.1 µM | 153 ± 2.3 µM | 
1023 ± 5.2 µM | CN(C)c1ccc(-c2oc3ccccc3c(=O)c2O)cc1 [QMJ-1, 2-[4(Dimethylamino)phenyl]-3-hydroxy-4H-1-benzopyran-4-one] | 102 ± 1.8 µM | 186 ± 4.9 µM | 
1124 ± 6.2 µM | Cc1ccc2oc(-c3ccc(N(C)C)cc3)c(O)c(=O)c2c1 [QMJ-3, 2-[4-(Dimethylamino)phenyl]-3-hydroxy-6-methyl-4H-1-benzopyran-4-one] | 70.3 ± 4.1 µM | 80.1 ± 3.7 µM | 

The next lines start with the compound.

SMILES | IC50 [2] | IC50 (HCT116 cells [1]) | IC50 (VERO cells) | other results
O=C(CCCCCCC(=O)Nc1ccccc1)NO [SAHA, reference compound] |  |  |  | HDAC8 expression (HDAC8): significant reduction; expression of acetylated histone H3K9 (acetyl histone H3K9): significant increase; expression of p21^Waf1/Cip1 (p21^Waf1/Cip1): increased; percentage of cells undergoing late apoptosis (Late Apop./Dead, annexin V) (HCT116 cells [3]): 27.65%; percentage of apoptotic cells (Apoptotic/Dead, caspase 3/7) [4]: 56.30%; percentage of cells in G2/M phase (HCT116 cells [5]): 37.5%
O=c1[nH]cc(F)c(=O)[nH]1 [5-FU, 5-Fluorouracil, reference compound] |  |  |  | ACF/5 cm^2 (DMH-induced colon cancer; 21 days treatment, quercetin, QMJ-2, QMJ-5 100 mg/kg p.o., DMH control 25 ± 2.1, mean ± SEM of six animals): 10 ± 1.3 /5 cm^2 and 10 ± 1.3^a /5 cm^2; colon weight/length ratio (DMH-induced colon cancer; compared with DMH control, others 100 mg/kg p.o., 21 days): significantly (p < 0.05) reduced; Adenocarcinoma (DMH-induced colon cancer; count in colon, 21 days treatment, quercetin, QMJ-2, QMJ-5 100 mg/kg p.o., DMH control 17 ± 1.7, mean ± SEM of six animals): 8 ± 1.1^a
